Reference: US10294202B2, “Pyrrolidinones as herbicides” (FMC Corporation, priority 2013, dated 2019)

Key:
barnyardgrass [1] = test: Test A pre-/postemergence herbicide test; assay type: in vivo, Echinochloa crus-galli; details: for Barnyardgrass plant response rating: visual rating on 0 to 100 scale (0 no effect, 100 complete control)
Method in brief: (§1)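 Visual 0–100 ratings (100 = complete control) made about 10 days after treatment, greenhouse-held plants compared with untreated controls. Treatments: postemergence sprays on one- to two-leaf plants (2–10 cm tall) and preemergence directed soil sprays after planting in loam–sand, chemicals formulated in non-phytotoxic solvent containing surfactant.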

pigweed = test: Test A pre-/postemergence herbicide test; assay type: in vivo, Amaranthus retroflexus; details: for Pigweed plant response rating: visual rating on 0 to 100 scale (0 no effect, 100 complete control)
Method in brief: as §1

giant foxtail = test: Test A pre-/postemergence herbicide test; assay type: in vivo, Setaria faberii; details: for Foxtail, Giant plant response rating: visual rating on 0 to 100 scale (0 no effect, 100 complete control)
Method in brief: as §1

morningglory = test: Test C pre-/postemergence herbicide test; assay type: in vivo, Ipomoea coccinea; details: Preemergence; for Plant response rating, Morningglory: 125 g ai/ha; for Plant response rating (scale of 0 to 100), Morningglory: 250 g ai/ha
Text: (§2) Seeds of plant species selected from blackgrass (Alopecurus myosuroides), ryegrass, Italian (Italian ryegrass, Lolium multiflorum), wheat (winter wheat, Triticum aestivum), galium (catchweed bedstraw, Galium aparine), corn (Zea mays), crabgrass, large (large crabgrass, Digitaria sanguinalis), foxtail, giant (giant foxtail, Setaria faberii), johnsongrass (Sorghum halepense), lambsquarters (Chenopodium album), morningglory (Ipomoea coccinea), nutsedge, yellow (yellow nutsedge, Cyperus esculentus), pigweed (Amaranthus retroflexus), ragweed (common ragweed, Ambrosia elatior), soybean (Glycine max), barnyardgrass (Echinochloa crus-galli), oilseed rape (Brassica napus), waterhemp (common waterhemp, Amaranthus rudis), kochia (Kochia scoparia), oat, wild (wild oat, Avena fatua), surinam grass (Brachiaria decumbens), foxtail, green (green foxtail, Setaria viridis), goosegrass (Eleusine indica), bromegrass, downy (downy bromegrass, Bromus tectorum), nightshade (eastern black nightshade, Solanum ptycanthum), cocklebur (common cocklebur, Xanthium strumarium), cupgrass, woolly (woolly cupgrass, Eriochloa villosa), bermudagrass (Cynodon dactylon), sunflower, (common oilseed sunflower, Helianthus annuus), Russian thistle (Salsola kali) and velvetleaf (Abutilon theophrasti) were planted into a blend of loam soil and sand and treated preemergence with test chemicals formulated in a non-phytotoxic solvent mixture which included a surfactant. At the same time, plants selected from these crop and weed species and also barley (winter barley, Hordeum vulgare), […]), chickweed (common chickweed, Stellaria media), deadnettle (henbit deadnettle, Lamium amplexicaule), and canarygrass (littleseed canarygrass, Phalaris minor) were planted in pots containing Redi-Earth® planting medium (Scotts Company, 14111 Scottslawn Road, Marysville, Ohio 43041) comprising spaghnum peat moss, vermiculite, wetting agent and starter nutrients and treated with postemergence applications of test chemicals formulated in the same manner. Plants ranged in height from 2 to 18 cm (1- to 4-leaf stage) for postemergence treatments. Treated plants and controls were maintained in a greenhouse for 13 to 15 days, after which time all species were compared to controls and visually evaluated. Plant response ratings, summarized in Table C, are based on a scale of 0 to 100 where 0 is no effect and 100 is complete control. A dash (-) response means no test result.

crabgrass, large = test: Test C pre-/postemergence herbicide test; assay type: in vivo, Digitaria sanguinalis; details: Preemergence; for Plant response rating, Crabgrass, Large: 125 g ai/ha; for Plant response rating (scale of 0 to 100), Crabgrass, Large: 250 g ai/ha
Text: as §2

foxtail, giant = test: Test C pre-/postemergence herbicide test; assay type: in vivo, Setaria faberii; details: Preemergence; for Plant response rating, Foxtail, Giant: 125 g ai/ha; for Plant response rating (scale of 0 to 100), Foxtail, Giant: 250 g ai/ha
Text: as §2

galium = test: Test C pre-/postemergence herbicide test; assay type: in vivo, Galium aparine; details: Preemergence; for Plant response rating, Galium: 125 g ai/ha; for Plant response rating (scale of 0 to 100), Galium: 250 g ai/ha
Text: as §2

velvetleaf = test: Test C pre-/postemergence herbicide test; assay type: in vivo, Abutilon theophrasti; details: Preemergence; for Plant response rating, Velvetleaf: 125 g ai/ha; for Plant response rating (scale of 0 to 100), Velvetleaf: 250 g ai/ha
Text: as §2

lambsquarters = test: Test C pre-/postemergence herbicide test; assay type: in vivo, Chenopodium album; details: Preemergence; for Plant response rating, Lambsquarters: 125 g ai/ha; for Plant response rating (scale of 0 to 100), Lambsquarters: 250 g ai/ha
Text: as §2

waterhemp = test: Test C pre-/postemergence herbicide test; assay type: in vivo, Amaranthus rudis; details: Preemergence; for Plant response rating, Waterhemp: 125 g ai/ha; for Plant response rating (scale of 0 to 100), Waterhemp: 250 g ai/ha
Text: as §2

barnyardgrass [2] = test: Test C pre-/postemergence herbicide test; assay type: in vivo, Echinochloa crus-galli; details: Preemergence; for Plant response rating, Barnyardgrass: 125 g ai/ha; for Plant response rating (scale of 0 to 100; 0 is no effect, 100 is complete control), Barnyardgrass: 250 g ai/ha
Text: as §2

[3] = Postemergence, 125 g ai/ha, 0 to 100 scale, 0 no effect, 100 complete control
[4] = Postemergence, 500 g ai/ha, 0 to 100 scale (0 no effect, 100 complete control)
[5] = preemergence, 500 g ai/ha, 0 to 100 scale (0 no effect, 100 complete control)
[6] = preemergence, 500 g ai/ha, 0 to 100 scale
[7] = 31 g ai/ha, scale 0 to 100, 0 is no effect and 100 is complete control
[8] = 62 g ai/ha, scale 0 to 100 (0 no effect, 100 complete control)
[9] = scale 0 to 100 (0 no effect, 100 complete control)
[10] = Postemergence, 125 g ai/ha, 0 to 100 scale, 0 is no effect, 100 is complete control
[11] = Preemergence, 125 g ai/ha, 0 to 100 scale where 0 is no effect and 100 is complete control
[12] = preemergence, 500 g ai/ha, 0 to 100 scale, 0 is no effect and 100 is complete control

O=C1NCC(c2cccc(C(F)(F)F)c2)C1C(=O)Nc1ccccc1F (racemic) [Compound 3]
Plant response rating, Barnyardgrass (barnyardgrass [1]; [3]): 70
Plant response rating, Barnyardgrass (barnyardgrass [1]; [4]): 80
Barnyardgrass plant response rating (barnyardgrass [1]; Preemergence, 125 g ai/ha): 60
Plant response rating, Barnyardgrass (barnyardgrass [1]; [5]): 80
Plant response rating, Pigweed (pigweed; [4]): 50
Pigweed plant response rating (pigweed; Preemergence, 125 g ai/ha): 0
Plant response rating, Pigweed (pigweed; [6]): 0
Plant response rating, Foxtail, Giant (giant foxtail; [3]): 60
Plant response rating, Foxtail, Giant (giant foxtail; [4]): 80
Foxtail, Giant plant response rating (giant foxtail; Preemergence, 125 g ai/ha): 90
Plant response rating, Foxtail, Giant (giant foxtail; [6]): 90

O=C1NCC(c2ccc(F)c(F)c2)C1C(=O)Nc1cccc(F)c1 (racemic) [Compound 12]
Plant response rating, Barnyardgrass (barnyardgrass [1]; [3]): 60
Plant response rating, Barnyardgrass (barnyardgrass [1]; [4]): 90
Barnyardgrass plant response rating (barnyardgrass [1]; Preemergence, 125 g ai/ha): 60
Plant response rating, Barnyardgrass (barnyardgrass [1]; [5]): 90
Plant response rating, Pigweed (pigweed; [3]): 0
Plant response rating, Pigweed (pigweed; [4]): 0
Pigweed plant response rating (pigweed; Preemergence, 125 g ai/ha): 0
Plant response rating, Pigweed (pigweed; [6]): 0
Plant response rating, Foxtail, Giant (giant foxtail; [3]): 60
Plant response rating, Foxtail, Giant (giant foxtail; [4]): 80
Foxtail, Giant plant response rating (giant foxtail; Preemergence, 125 g ai/ha): 70
Plant response rating, Foxtail, Giant (giant foxtail; [6]): 90

O=C1NCC(c2ccc(C(F)(F)F)nc2)C1C(=O)Nc1ccccc1F (racemic) [Compound 262]
Morningglory plant response rating (morningglory; [7]): 0
Morningglory plant response rating (morningglory; [8]): 0
Plant response rating, Morningglory (morningglory; [9]): 10
Plant response rating (scale of 0 to 100), Morningglory (morningglory): 10
Plant response rating, Barnyardgrass (barnyardgrass [1]; [10]): 60
Plant response rating, Barnyardgrass (barnyardgrass [1]; [4]): 70
Plant response rating, Barnyardgrass (barnyardgrass [1]; [11]): 80
Plant response rating, Barnyardgrass (barnyardgrass [1]; [12]): 90
Crabgrass, Large plant response rating (crabgrass, large; [7]): 95
Crabgrass, Large plant response rating (crabgrass, large; [8]): 98
Plant response rating, Crabgrass, Large (crabgrass, large; [9]): 100
Plant response rating (scale of 0 to 100), Crabgrass, Large (crabgrass, large): 100
Plant response rating, Pigweed (pigweed; [10]): 0
Plant response rating, Pigweed (pigweed; [4]): 0
Plant response rating, Pigweed (pigweed; [11]): 50
Plant response rating, Pigweed (pigweed; [12]): 70
Foxtail, Giant plant response rating (foxtail, giant; [7]): 20
Foxtail, Giant plant response rating (foxtail, giant; [8]): 70
Plant response rating, Foxtail, Giant (foxtail, giant; [9]): 95
Plant response rating (scale of 0 to 100), Foxtail, Giant (foxtail, giant): 95
Galium plant response rating (galium; [7]): 0
Galium plant response rating (galium; [8]): 40
Plant response rating, Galium (galium; [9]): 60
Plant response rating (scale of 0 to 100), Galium (galium): 85
Velvetleaf plant response rating (velvetleaf; [7]): 0
Velvetleaf plant response rating (velvetleaf; [8]): 0
Plant response rating, Velvetleaf (velvetleaf; [9]): 0
Plant response rating (scale of 0 to 100), Velvetleaf (velvetleaf): 0
Plant response rating, Foxtail, Giant (giant foxtail; [10]): 60
Plant response rating, Foxtail, Giant (giant foxtail; [4]): 70
Plant response rating, Foxtail, Giant (giant foxtail; [11]): 80
Plant response rating, Foxtail, Giant (giant foxtail; [12]): 90
Lambsquarters plant response rating (lambsquarters; [7]): 100
Lambsquarters plant response rating (lambsquarters; [8]): 70
Plant response rating, Lambsquarters (lambsquarters; [9]): 80
Plant response rating (scale of 0 to 100), Lambsquarters (lambsquarters): 100
Waterhemp plant response rating (waterhemp; [7]): 0
Waterhemp plant response rating (waterhemp; [8]): 50
Plant response rating, Waterhemp (waterhemp; [9]): 60
Plant response rating (scale of 0 to 100), Waterhemp (waterhemp): 50
Barnyardgrass plant response rating (barnyardgrass [2]; [7]): 45
Barnyardgrass plant response rating (barnyardgrass [2]; [8]): 70
Plant response rating, Barnyardgrass (barnyardgrass [2]; [9]): 90
Plant response rating (scale of 0 to 100; 0 is no effect, 100 is complete control), Barnyardgrass (barnyardgrass [2]): 95

O=C1NCC(c2ccc(C(F)(F)F)nc2)C1C(=O)Nc1cccc(F)c1F (racemic) [Compound 263]
Morningglory plant response rating (morningglory; [7]): 0
Morningglory plant response rating (morningglory; [8]): 0
Plant response rating, Morningglory (morningglory; [9]): 20
Plant response rating (scale of 0 to 100), Morningglory (morningglory): 10
Plant response rating, Barnyardgrass (barnyardgrass [1]; [10]): 70
Plant response rating, Barnyardgrass (barnyardgrass [1]; [4]): 80
Plant response rating, Barnyardgrass (barnyardgrass [1]; [11]): 80
Plant response rating, Barnyardgrass (barnyardgrass [1]; [12]): 90
Crabgrass, Large plant response rating (crabgrass, large; [7]): 100
Crabgrass, Large plant response rating (crabgrass, large; [8]): 100
Plant response rating, Crabgrass, Large (crabgrass, large; [9]): 100
Plant response rating (scale of 0 to 100), Crabgrass, Large (crabgrass, large): 100
Plant response rating, Pigweed (pigweed; [4]): 70
Plant response rating, Pigweed (pigweed; [11]): 60
Plant response rating, Pigweed (pigweed; [12]): 100
Foxtail, Giant plant response rating (foxtail, giant; [7]): 65
Foxtail, Giant plant response rating (foxtail, giant; [8]): 95
Plant response rating, Foxtail, Giant (foxtail, giant; [9]): 98
Plant response rating (scale of 0 to 100), Foxtail, Giant (foxtail, giant): 98
Galium plant response rating (galium; [7]): 70
Galium plant response rating (galium; [8]): 85
Plant response rating, Galium (galium; [9]): 85
Plant response rating (scale of 0 to 100), Galium (galium): 90
Velvetleaf plant response rating (velvetleaf; [7]): 5
Velvetleaf plant response rating (velvetleaf; [8]): 5
Plant response rating, Velvetleaf (velvetleaf; [9]): 20
Plant response rating (scale of 0 to 100), Velvetleaf (velvetleaf): 5
Plant response rating, Foxtail, Giant (giant foxtail; [10]): 80
Plant response rating, Foxtail, Giant (giant foxtail; [4]): 90
Plant response rating, Foxtail, Giant (giant foxtail; [11]): 90
Plant response rating, Foxtail, Giant (giant foxtail; [12]): 100
Lambsquarters plant response rating (lambsquarters; [7]): 50
Lambsquarters plant response rating (lambsquarters; [8]): 100
Plant response rating, Lambsquarters (lambsquarters; [9]): 70
Plant response rating (scale of 0 to 100), Lambsquarters (lambsquarters): 80
Waterhemp plant response rating (waterhemp; [7]): 75
Waterhemp plant response rating (waterhemp; [8]): 80
Plant response rating, Waterhemp (waterhemp; [9]): 90
Plant response rating (scale of 0 to 100), Waterhemp (waterhemp): 100
Barnyardgrass plant response rating (barnyardgrass [2]; [7]): 75
Barnyardgrass plant response rating (barnyardgrass [2]; [8]): 90
Plant response rating, Barnyardgrass (barnyardgrass [2]; [9]): 95
Plant response rating (scale of 0 to 100; 0 is no effect, 100 is complete control), Barnyardgrass (barnyardgrass [2]): 98
